Experimental data taken from patent publication US11390616B2 (BRISTOL-MYERS SQUIBB COMPANY, priority 2015, dated 2022).

biological target: T1, human APJ receptor (Homo sapiens, UniProt P35414); assay: Intracellular cAMP accumulation assay (APJ hcAMP, HTRF); format: cell-based; conditions: HEK293 cells stably expressing human APJ receptor; inhibition of forskolin-mediated cAMP production; read-out: APJ cAMP Potency range
T1 construct: expressed in transfected cells; host or cells: HEK293
T1 sequence (P35414 1-380): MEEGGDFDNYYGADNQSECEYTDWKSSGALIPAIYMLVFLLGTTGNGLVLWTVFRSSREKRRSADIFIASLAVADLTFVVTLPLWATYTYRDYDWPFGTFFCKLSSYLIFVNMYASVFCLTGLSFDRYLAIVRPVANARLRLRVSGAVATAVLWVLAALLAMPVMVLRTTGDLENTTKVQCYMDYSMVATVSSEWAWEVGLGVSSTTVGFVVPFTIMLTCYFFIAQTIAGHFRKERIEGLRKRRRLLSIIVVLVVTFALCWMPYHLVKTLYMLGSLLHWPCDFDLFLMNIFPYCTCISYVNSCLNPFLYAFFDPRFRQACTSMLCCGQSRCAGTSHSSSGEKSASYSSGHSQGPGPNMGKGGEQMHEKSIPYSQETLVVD
Experimental: Intracellular cAMP Accumulation Assay
HEK293 cells stably expressing human APJ receptor were used to assess the activity of compounds. Cultured cells were detached and resuspended in the cAMP Homogeneous Time-Resolved Fluorescence (HTRF) assay buffer (Cisbio cat; #62AM4PEJ). The assay was performed in 384-well assay plates (Perkin-Elmer; cat #6008289) according to assay protocol provided by the manufacturer. Serial dilutions of a compound together with assay buffer containing […] IBMX and 2 μM forskolin were added to each well containing 5,000 cells and incubated for 30 minutes at room temperature. Subsequently, cAMP D2 reagent was added in the lysis buffer followed by the EuK antibody (Cisbio; cat #62AM4PEJ) and incubated for 60 min. The fluorescence emission ratio was measured using fluorometer. The intracellular cAMP concentrations (compound-stimulated inhibition of forskolin-mediated cAMP production) were calculated by extrapolation from a standard curve using known cAMP concentrations. The EC50 values were obtained by fitting the data to a sigmoidal concentration-response curve with variable slope. The maximal achievable inhibition of forskolin-induced cAMP levels (Ymax) for each compound was expressed as relative percentage of inhibition attained using pyroglutamated apelin-13 ((Pyr1)apelin-13) peptide, which was set to 100%.
The examples disclosed below were tested in the APJ in vitro assays described above and were found having human APJ cyclic AMP (hcAMP) activity. The EC50 value of each compound is presented at the end of the example description.
The biological activity of the exemplified compounds of this invention determined by the assay described above is shown at the end of each example.

Structure (SMILES) | EC50 [nM]
CCCCc1nc(O)c(Cc2cnc(-c3ccc(Cl)cc3)s2)c(=O)n1-c1c(OC)cccc1OC [Example 26, 2-butyl-5-{[2-(4-chlorophenyl)-1,3-thiazol-5-yl]methyl}-3-(2,6-dimethoxyphenyl)-6-hydroxy-3,4-dihydropyrimidin-4-one] | 0.01 to 10
CCCCc1nc(O)c(Cc2ccc(Cn3cccn3)cc2)c(=O)n1-c1c(OC)cccc1OC [Example 27, 2-butyl-3-(2,6-dimethoxyphenyl)-6-hydroxy-5-{[4-(1H-pyrazol-1-ylmethyl)phenyl]methyl}-3,4-dihydropyrimidin-4-one] | 0.01 to 10
CCCCc1nc(O)c(Cc2ccc(-c3ccc(OC)cc3)nc2)c(=O)n1-c1c(OC)cccc1OC [Example 29, 2-butyl-3-(2,6-dimethoxyphenyl)-6-hydroxy-5-{[6-(4-methoxyphenyl)pyridin-3-yl]methyl}-3,4-dihydropyrimidin-4-one] | 0.01 to 10
CCCCc1nc(O)c(Cc2cnn(Cc3ccccc3)c2)c(=O)n1-c1c(OC)cccc1OC [Example 30, 5-[(1-benzyl-1H-pyrazol-4-yl)methyl]-2-butyl-3-(2,6-dimethoxyphenyl)-6-hydroxy-3,4-dihydropyrimidin-4-one] | 0.01 to 10
CCOCc1nc(O)c(Cc2ccn(-c3ccc(Cl)cc3)n2)c(=O)n1-c1c(OC)cccc1OC [Example 31, 5-{[1-(4-chlorophenyl)-1H-pyrazol-3-yl]methyl}-3-(2,6-dimethoxyphenyl)-2-(ethoxymethyl)-6-hydroxy-3,4-dihydropyrimidin-4-one] | 10 to 100
CCOCc1nc(O)c(Cc2ccc(-c3ncon3)cc2)c(=O)n1-c1c(OC)cccc1OC [Example 32, 3-(2,6-dimethoxyphenyl)-2-(ethoxymethyl)-6-hydroxy-5-{[4-(1,2,4-oxadiazol-3-yl)phenyl]methyl}-3,4-dihydropyrimidin-4-one] | 10 to 100
CCOCc1nc(O)c(Cc2coc(-c3ccc(Cl)cc3)n2)c(=O)n1-c1c(OC)cccc1OC [Example 33, 5-{[2-(4-chlorophenyl)-1,3-oxazol-4-yl]methyl}-3-(2,6-dimethoxyphenyl)-2-(ethoxymethyl)-6-hydroxy-3,4-dihydropyrimidin-4-one] | 10 to 100
CCCCc1nc(O)c(Cc2ccc(N3CCOCC3)cc2)c(=O)n1-c1c(OC)cccc1OC [Example 36, 2-butyl-3-(2,6-dimethoxyphenyl)-6-hydroxy-5-{[4-(morpholin-4-yl)phenyl]methyl}-3,4-dihydropyrimidin-4-one] | 0.01 to 10
COc1cccc(OC)c1-n1c(COC2CCC2)nc(O)c(Cc2ccc(-n3ccccc3=O)cc2)c1=O [Example 39, 2-(cyclobutoxymethyl)-3-(2,6-dimethoxyphenyl)-6-hydroxy-5-{[4-(2-oxo-1,2-dihydropyridin-1-yl)phenyl]methyl}-3,4-dihydropyrimidin-4-one] | 0.01 to 10
CCCCc1nc(O)c(Cc2ccc(-c3ccc(C)nc3)cc2)c(=O)n1-c1c(OC)cccc1OC [Example 44, 2-butyl-3-(2,6-dimethoxyphenyl)-6-hydroxy-5-{[4-(6-methylpyridin-3-yl)phenyl]methyl}-3,4-dihydropyrimidin-4-one] | 10 to 100
CCCCc1nc(O)c(Cc2ccc(-c3ccccc3)cc2)c(=O)n1-c1c(OC)cccc1OC [Example 45, 5-({[1,1′-biphenyl]-4-yl}methyl)-2-butyl-3-(2,6-dimethoxyphenyl)-6-hydroxy-3,4-dihydropyrimidin-4-one] | 0.01 to 10
CCCCc1nc(O)c(Cc2ccc(-c3ccc(Cl)cn3)cc2)c(=O)n1-c1c(OC)cccc1OC [Example 46, 2-butyl-5-{[4-(5-chloropyridin-2-yl)phenyl]methyl}-3-(2,6-dimethoxyphenyl)-6-hydroxy-3,4-dihydropyrimidin-4-one] | 0.01 to 10
CCCCc1nc(O)c(Cc2ccc(-c3cccnc3OC)cc2)c(=O)n1-c1c(OC)cccc1OC [Example 48, 2-butyl-3-(2,6-dimethoxyphenyl)-6-hydroxy-5-{[4-(2-methoxypyridin-3-yl)phenyl]methyl}-3,4-dihydropyrimidin-4-one] | 0.01 to 10

Other lines, results leading:

EC50 [nM] | Structure (SMILES)
0.01 to 10 | CCCCc1nc(O)c(Cc2ccc(-n3ccccc3=O)cc2)c(=O)n1-c1c(OC)cccc1OC [Example 28, 2-butyl-3-(2,6-dimethoxyphenyl)-6-hydroxy-5-{[4-(2-oxo-1,2-dihydropyridin-1-yl)phenyl]methyl}-3,4-dihydropyrimidin-4-one]
0.01 to 10 | COc1cccc(OC)c1-n1c(CCC(C)C)nc(O)c(Cc2ccc(-n3ccccc3=O)cc2)c1=O [Example 34, 3-(2,6-dimethoxyphenyl)-6-hydroxy-2-(3-methylbutyl)-5-{[4-(2-oxo-1,2-dihydropyridin-1-yl)phenyl]methyl}-3,4-dihydropyrimidin-4-one]
0.01 to 10 | CCCCc1nc(O)c(Cc2ccc(N3CCCCC3=O)cc2)c(=O)n1-c1c(OC)cccc1OC [Example 35, 2-butyl-3-(2,6-dimethoxyphenyl)-6-hydroxy-5-{[4-(2-oxopiperidin-1-yl)phenyl]methyl}-3,4-dihydropyrimidin-4-one]
0.01 to 10 | COc1cccc(OC)c1-n1c(C2CCCC2)nc(O)c(Cc2ccc(-n3ccccc3=O)cc2)c1=O [Example 38, 2-cyclopentyl-3-(2,6-dimethoxyphenyl)-6-hydroxy-5-{[4-(2-oxo-1,2-dihydropyridin-1-yl)phenyl]methyl}-3,4-dihydropyrimidin-4-one]
0.01 to 10 | COc1cccc(OC)c1-n1c(COC2CC2)nc(O)c(Cc2ccc(-n3ccccc3=O)cc2)c1=O [Example 40, 2-(cyclopropoxymethyl)-3-(2,6-dimethoxyphenyl)-6-hydroxy-5-{[4-(2-oxo-1,2-dihydropyridin-1-yl)phenyl]methyl}-3,4-dihydropyrimidin-4-one]
0.01 to 10 | COc1cccc(OC)c1-n1c(CCC2CC2)nc(O)c(Cc2ccc(-n3ccccc3=O)cc2)c1=O [Example 41, 2-(2-cyclopropylethyl)-3-(2,6-dimethoxyphenyl)-6-hydroxy-5-{[4-(2-oxo-1,2-dihydropyridin-1-yl)phenyl]methyl}-3,4-dihydropyrimidin-4-one]
0.01 to 10 | CCCCc1nc(O)c(Cc2ccc(-n3ccc(Cl)cc3=O)cc2)c(=O)n1-c1c(OC)cccc1OC [Example 42, 2-butyl-5-{[4-(4-chloro-2-oxo-1,2-dihydropyridin-1-yl)phenyl]methyl}-3-(2,6-dimethoxyphenyl)-6-hydroxy-3,4-dihydropyrimidin-4-one]
0.01 to 10 | CCCCc1nc(O)c(Cc2ccc(-n3ccc(C)cc3=O)cc2)c(=O)n1-c1c(OC)cccc1OC [Example 43, 2-butyl-3-(2,6-dimethoxyphenyl)-6-hydroxy-5-{[4-(4-methyl-2-oxo-1,2-dihydropyridin-1-yl)phenyl]methyl}-3,4-dihydropyrimidin-4-one]
0.01 to 10 | CCCCc1nc(O)c(Cc2ccc(-n3cc(F)ccc3=O)cc2)c(=O)n1-c1c(OC)cccc1OC [Example 47, 2-butyl-3-(2,6-dimethoxyphenyl)-5-{[4-(5-fluoro-2-oxo-1,2-dihydropyridin-1-yl)phenyl]methyl}-6-hydroxy-3,4-dihydropyrimidin-4-one]
0.01 to 10 | CCCCc1nc(O)c(Cc2ccc(-n3cc(Cl)ccc3=O)cc2)c(=O)n1-c1c(OC)cccc1OC [Example 49, 2-butyl-5-{[4-(5-chloro-2-oxo-1,2-dihydropyridin-1-yl)phenyl]methyl}-3-(2,6-dimethoxyphenyl)-6-hydroxy-3,4-dihydropyrimidin-4-one]
0.01 to 10 | CCCCc1nc(O)c(Cc2ccc(-n3cc(C)ccc3=O)cc2)c(=O)n1-c1c(OC)cccc1OC [Example 50, 2-butyl-3-(2,6-dimethoxyphenyl)-6-hydroxy-5-{[4-(5-methyl-2-oxo-1,2-dihydropyridin-1-yl)phenyl]methyl}-3,4-dihydropyrimidin-4-one]
0.01 to 10 | COc1cccc(OC)c1-n1c(C2CCCC2)nc(O)c(Cc2ccc(-n3cc(F)ccc3=O)cc2)c1=O [Example 51, 2-cyclopentyl-3-(2,6-dimethoxyphenyl)-5-{[4-(5-fluoro-2-oxo-1,2-dihydropyridin-1-yl)phenyl]methyl}-6-hydroxy-3,4-dihydropyrimidin-4-one]

same assay, conditions: HEK293 cells stably expressing human APJ receptor; inhibition of forskolin-mediated cAMP production; read-out: Human APJ cAMP EC50 potency range

EC50 [nM] | Structure (SMILES)
0.01 to 10 | COc1cccc(OC)c1-n1c(-c2ccc(F)cc2)nc(O)c(Cc2ccc(-n3cc(F)ccc3=O)cc2)c1=O [Example 37, 3-(2,6-dimethoxyphenyl)-5-(4-(5-fluoro-2-oxopyridin-1(2H)-yl)benzyl)-2-(4-fluorophenyl)-6-hydroxypyrimidin-4(3H)-one]
